The source of these data is ChEMBL document CHEMBL4033694, “Synthesis, antimycobacterial activity and docking study of 2-aroyl-[1]benzopyrano[4,3-c]pyrazol-4(1H)-one derivatives and related hydrazide-hydrazones” (Bioorg Med Chem Lett, 2017).

Molecules are shown by their SMILES. ≈ marks a conversion by molar mass, not a printed value. Where a name gives a salt, the structure may show the parent alone.

One series deals with HEK-293T. The series is described as follows: Cytotoxicity against HEK293T cells after 72 hrs by MTT assay. It counts as cell-based. The following applies: Homo sapiens.
The test system of series [1] is Mycobacterium tuberculosis. The series is described as follows: Antimicrobial activity against Mycobacterium tuberculosis H37Rv after 7 days by resazurin microtiter assay. It counts as functional. The conditions noted are these: 168 h.
Series [2] can be described thus: Selectivity index, ratio of IC50 for HEK293T cells to MIC for Mycobacterium tuberculosis H37Rv. It counts as toxicity. The following applies: human, read-out: Selectivity Index.
The nature of series [3]: Solubility of the compound in H2O. It counts as physicochemical.
The nature of series [4]: Solubility of the compound in CHCl3. In kind it is physicochemical.
Series [5] can be described thus: Solubility of the compound in MeOH. It counts as physicochemical.
Series [6] is described as follows: Stability of the compound in DMSO-d6 solvent measured every 8 hrs for 12 days by 1H NMR spectra analysis. In kind it is physicochemical. The conditions noted are these: 288 h.
Series [7] in a line: Solubility of the compound in EtOH. In kind it is physicochemical.
A short description of series [8]: Stability of the compound in DMSO-d6 solvent/middlebrook 7H9 broth media after 16 hrs by 1H NMR spectra analysis. It counts as physicochemical.
A short description of series [9]: Thermal stability of the compound in DMSO-d6 solvent at 37 degC by 1H NMR spectra analysis. It counts as physicochemical.

In the case of `O=C(c1ccc(O)cc1)n1cc2c(=O)oc3ccccc3c2n1`, in the series with HEK-293T, the 50% inhibitory concentration (IC50) is > 200 µM. The compound further had an MIC in series [1] of 0.32 µM (≈ 0.098 µg/mL). In series [2], the selectivity ratio was > 625.
Consider `COc1ccc(C(=O)N/N=C/c2c(Cl)c3ccccc3oc2=O)cc1`, for which, in the series with HEK-293T, the IC50 stood at 113 µM. Further, the solubility entry in [3], in series [4], in [5] and in [7] was “Insoluble” throughout. Also, the Stability entry in series [6], in series [8] and in [9] was “Stable” in each case. Besides, in [1], it took 0.28 µM (≈ 0.0999 µg/mL) to inhibit growth (MIC). Besides, the selectivity ratio in series [2] worked out at 403.
For the compound `COc1ccc(C(=O)n2cc3c(=O)oc4ccccc4c3n2)cc1`, the IC50 in the series on HEK-293T is > 200 µM. In addition, the solubility result in [3], in [4], in [5] and in series [7] was “Insoluble” each time. For the same compound, the Stability entry in [6], in [8] and in series [9] was “Stable” throughout. For the same compound, in series [1], the MIC was found to be 0.62 µM (≈ 0.199 µg/mL). The selectivity ratio in series [2] is > 645.
As to `NNC(=O)c1ccncc1` [ISONIAZID], in series [1], inhibition of growth (MIC) required 0.79 µM (≈ 0.108 µg/mL).
Consider `CN(C)c1ccc(C(=O)N/N=C/c2c(Cl)c3ccccc3oc2=O)cc1`, for which the IC50 with HEK-293T stood at 18.7 µM. Further, the solubility entry in series [3], in series [4], in series [5] and in [7] was “Insoluble” each time. Further, the Stability result in series [6], in series [8] and in [9] was “Stable” throughout. This compound yielded an MIC in series [1] of 0.54 µM (≈ 0.2 µg/mL). Besides, in series [2], the selectivity ratio was 20.
In the case of `CN(C)c1ccc(C(=O)n2cc3c(=O)oc4ccccc4c3n2)cc1`, the IC50 in the series with HEK-293T is > 200 µM. Also, the solubility result in series [3], in series [4], in series [5] and in series [7] was “Insoluble” each time. The Stability result in series [6], in series [8] and in series [9] was “Stable” throughout. In [1], this compound gave an MIC of 0.59 µM (≈ 0.197 µg/mL). Further, the selectivity ratio in [2] is > 408.
For the compound `Cc1occc1C(=O)n1cc2c(=O)oc3ccccc3c2n1`, the IC50 in the series on HEK-293T was > 200 µM. The same compound returned an MIC in series [1] of 1.69 µM (≈ 0.497 µg/mL). The selectivity ratio in series [2] was > 119.
Turning to `O=C(c1ccc(O)cc1O)n1cc2c(=O)oc3ccccc3c2n1`, the IC50 in the series with HEK-293T is > 200 µM. For the same compound, the solubility entry in series [3], in [4], in [5] and in [7] was “Insoluble” throughout. Moreover, the Stability entry in [6], in series [8] and in series [9] was “Stable” each time. For the same compound, the MIC in [1] worked out at 0.62 µM (≈ 0.2 µg/mL). For the same compound, in series [2], the selectivity ratio is > 308.
As for `CC[C@@H](CO)NCCN[C@@H](CC)CO` [ETHAMBUTOL HYDROCHLORIDE], in [1], 1.46 µM was the least that counted as inhibitory (MIC).
For `O=C(N/N=C/c1c(Cl)c2ccccc2oc1=O)c1ccc(Cl)cc1`, the IC50 with HEK-293T came to 21 µM. The solubility result in series [3], in [4], in series [5] and in series [7] was “Insoluble” each time. In addition, the Stability entry in series [6], in series [8] and in series [9] was “Stable” throughout. In [1], it took 0.55 µM (≈ 0.199 µg/mL) to inhibit growth (MIC). Moreover, in series [2], the selectivity ratio stood at 33.
For the compound `O=C(c1ccco1)n1cc2c(=O)oc3ccccc3c2n1`, the IC50 in the series on HEK-293T is > 200 µM. This compound yielded an MIC in series [1] of 0.72 µM (≈ 0.202 µg/mL). Besides, the selectivity ratio in series [2] was > 282.
As to `O=C(N/N=C/c1c(Cl)c2ccccc2oc1=O)c1ccc(O)cc1O`, the MIC in [1] was found to be 0.56 µM (≈ 0.201 µg/mL).
`O=C(N/N=C/c1c(Cl)c2ccccc2oc1=O)c1ccco1` showed an IC50 in the series with HEK-293T of 63.6 µM. Further, the solubility entry in series [3], in [4], in series [5] and in series [7] was “Insoluble” throughout. For the same compound, the Stability result in series [6], in series [8] and in [9] was “Stable” throughout. For the same compound, the lowest concentration to inhibit growth in series [1] (MIC) was 0.63 µM (≈ 0.2 µg/mL). For the same compound, in series [2], the selectivity ratio amounted to 236.
